“And” between values parts separate entries of the source, which are not always exact repeats. Identical values can stand only once.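 Cultured in 96-well plates, cells were exposed to test compound for 48 hours across five concentrations. The concentration for 50% growth inhibition is given as GI50. The concentration for full growth arrest is given as TGI.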
Assays:
Test in all cases: DTP human tumour cell line panel, 48 h
[1] = tested on: SK-MEL-28 melanoma
[2] = tested on: COLO 205 colon
[3] = tested on: NCI-H226 lung
[4] = tested on: T-47D breast
[5] = tested on: SNB-19 CNS
[6] = tested on: NCI/ADR-RES ovarian
[7] = tested on: SNB-75 CNS
[8] = tested on: HS 578T breast
[9] = tested on: SNB-78 CNS
[10] = tested on: DMS 114 small cell lung
[11] = tested on: DLD-1 colon
[12] = tested on: XF 498 CNS
[13] = tested on: LXFL 529 NSCLC
[14] = tested on: KM20L2 colon

SMILES | TGI [1] [µM] | TGI [2] [µM] | TGI [3] [µM] | TGI [4] [µM] | TGI [5] [µM] | TGI [6] [µM] | TGI [7] | TGI [8] [µM] | TGI [9] [µM] | TGI [10] [µM] | TGI [11] [µM] | TGI [12] [µM] | TGI [13] [µM] | TGI [14] [µM] | GI50 [5] | GI50 [7] | GI50 [2] [nM]
CC(C)(C)C(=O)CC(=O)C(F)(F)C(F)(F)C(F)(F)F.[Ag] | 28.3 | 57.9 | 60.2 | 55.2 | 43.9 | 48.6 | 34.6 µM | 63.8 | – | – | – | – | – | – | – | – | –
Cc1ccc(NC(=S)N=Nc2c(O)[nH]c3ccccc23)cc1 | > 100 | > 100 | > 100 | > 100 | > 100 | > 100 | > 100 µM | > 100 | – | – | – | – | – | – | – | – | –
COC(=O)C1(Cc2ccc(C)cc2)Cc2c(C)cccc2C1=O (stereo unspecified) | > 100 | 33.4 | 38.4 | 72.1 | 90.3 | 80.9 | > 100 µM | 46.9 | – | – | – | – | – | – | – | – | –
C=C(C)C1CC2=C(O1)C(=O)c1cccc(O)c1C2=O (stereo unspecified) | 3.33 | 3.25 | 3.46 | 3.04 | 3.11 | 2.78 | 3.87 µM | 5.34 | – | – | – | – | – | – | – | – | –
CCCCC(N)CSSCC(N)CCCC (stereo unspecified) | 34.8 | > 100 | 43.6 | – | > 100 | – | > 100 µM | – | 98.5 | 37.1 | 60.3 | 34.9 | 31.2 | – | – | – | –
COc1ccc2c(c1)OC1c3ccccc3OCC21 (stereo unspecified) | > 100 | > 100 | > 100 | > 100 | > 100 | > 100 | > 100 µM | > 100 | – | – | – | – | – | – | – | – | –
COc1cc(C(=O)N(C(=S)OC23CC4CC(CC(C4)C2)C3)c2ccccc2)cc(OC)c1OC | > 100 | 39 | > 100 | > 100 | > 100 | > 100 | > 100 µM | > 100 | – | – | – | – | – | – | – | – | –
C=CCN(c1cc(OC)c2c(c1[N+](=O)[O-])C(C)(SC)C(=O)N2)S(C)(=O)=O (stereo unspecified) | > 100 | > 100 | > 100 | > 100 | > 100 | > 100 | > 100 µM | > 100 | – | – | – | – | – | – | – | – | –
O=C1CSC(c2cccc(Oc3ccccc3)c2)N1c1cccc(Cl)c1Cl (stereo unspecified) | > 100 | 44.1 | > 100 | > 100 | > 100 | 59.9 | > 100 µM | 84.7 | – | – | – | – | – | – | – | – | –
COc1ccc2[nH]c3c(C)c4ncccc4c(C)c3c2c1 | 3.49 | > 10 | > 10 | > 10 | > 10 | > 10 | > 10 µM | > 10 | – | – | – | – | – | – | – | – | –
O=P(O)(O)CC1OC(CO)C(O)C1O (stereo unspecified) | > 100 | > 100 | > 100 | > 100 | > 100 | > 100 | > 100 µM | > 100 | – | – | – | – | – | – | – | – | –
C(/C=C/Nc1ccc(-c2ccccc2)cc1)=Nc1ccc(-c2ccccc2)cc1 | > 100 | > 100 | > 100 | > 100 | > 100 | > 100 | > 100 µM | > 100 | – | – | – | – | – | – | – | – | –
COc1ccc(-c2nc(SC)n(C3OC(COC(C)=O)C(OC(C)=O)C(OC(C)=O)C3OC(C)=O)c(=O)c2C#N)cc1 (stereo unspecified) | > 100 | > 100 | > 100 | > 100 | > 100 | > 100 | 57.9 µM and > 100 µM | > 100 | 57.8 | – | – | – | > 100 | > 100 | 26.3 µM and > 100 µM | 22.8 µM and 65.6 µM | –
CCOC1=NC(C(F)(F)F)(C(F)(F)F)N=C(N2CCCCC2)O1 | > 100 | > 100 | > 100 | > 100 | > 100 | > 100 | > 100 µM | > 100 | – | – | – | – | – | – | – | – | –
CCOC(=O)/C=C(/C(=O)OCC)n1ccc(=O)n(CC(=O)OCC)c1=O | 3.32 | 1.63 | 5.31 | 2.55 | 25.4 | 8.14 | 7.92 µM | 26.4 | – | – | – | – | – | – | – | – | 361
COc1ccc2c(c1)C(=O)[C@@](Nc1ccc(C=O)cc1)(OC)[C@@](OC)(c1ccc([N+](=O)[O-])cc1)O2 | > 10 | > 10 | > 10 | > 10 | > 10 | > 10 | > 10 µM | > 10 | – | – | – | – | – | – | – | – | –
